Several values for one entry are separate records, joined by “and”; a condition that tells them apart may be missing. Equal values may be shown once.
Tests used:
[1] = tested on: DENV-3/C0360/94; assay: Viraemia/survival study; type: in vivo, AG129 mice; details: for Viral RNA copies/mL [Log10]: Fig. 2j Viraemia DENV-3, BID, individual animals 1-5, LOD is 1.7
Procedure: (§1) The UTMB is an Association for the Assessment and Accreditation of Laboratory and Care (AAALAC) International accredited facility. All of the procedures were reviewed and approved by the UTMB Institutional Animal Care and Use Committee. […] Male and female AG129 mice (n = 10 per group; aged 6–8 weeks) were housed at a maximum of 5 mice per cage in individually ventilated cages with food and water provided ad libitum. Allocation to experimental groups was performed randomly. […] Approximately 1 h after the first treatment, all of the animals were challenged by i.p. injection with 10^7 PFU DENV-1/West Pac, DENV-3/C0360/94 or DENV-4/703/4. Pretreatment with anti-flavivirus antibody 4G2 to increase disease severity by induction of ADE was not required as infection with DENV-1/West Pac, DENV-3/C0360/94 or DENV-4/703/4 in our models leads to severe disease (requiring euthanasia after >20% loss of body weight). Each treatment group was subdivided into two smaller groups (groups A and B; n = 5 each). Blood was collected on day 3 after infection from group A to measure viral RNA; samples were collected by retro-orbital bleed on day 3 after infection around 30 min before the morning treatment. In parallel, animals (groups A and B) were followed for lethality throughout the experiment. Viral RNA isolation from plasma and RT–qPCR analysis was performed using the methods described previously.
(§2) For the viral kinetics studies and the delayed-treatment studies, a batch approach was applied to calculate the viral load AUC using the PΚ R package. This package estimates a mean AUC value for settings in which the animals are measured at varying timepoints within a treatment group. […] The AUC was calculated using the LOD (2.6 log10 copies per ml) as the lowest limit. […] In the delayed-treatment studies, the total viral load AUC for each of the compound-treated groups was calculated and compared with that of the vehicle-treated group. […] P values were adjusted using the Bonferroni multiple-comparison correction method. Note that P values lower than 0.0001 were rounded to 0.0001. For survival studies of DENV-1-, DENV-3- or DENV-4-infected mice, Fisher’s exact tests were used on day 6. P values were adjusted using the Bonferroni multiple-comparison correction method.

[2] = tested on: DENV-4/703/4; assay: Viraemia/survival study; type: in vivo, AG129 mice; details: for Viral RNA copies/mL [Log10]: Fig. 2k Viraemia DENV-4, BID, individual animals 1-5, LOD is 1.7
Procedure: as §1, §2

[3] = tested on: DENV-1/West Pac; assay: Viraemia/survival study; type: in vivo, AG129 mice; details: for Viral RNA copies/mL [Log10]: Fig. 2i Viraemia DENV-1, BID, individual animals 1-5, LOD is 1.7
Procedure: as §1, §2

[4] = TOX-MT4LTRLUC; type: cell-based; details: human, MT4LTRLUC cells
Source text: Supplement 41586_2023_5790_MOESM14_ESM.xlsx, sheet "Ext. Data Table 1" | column: Mean

[5] = in vitro; details: dog
[6] = 60 or 6 mg per kg per day b.i.d.
[7] = 60 or 6 mg per kg per day b.i.d., vehicle 0%

COc1cc(N[C@H](C(=O)c2c[nH]c3ccc(OC(F)(F)F)cc23)c2ccc(Cl)cc2OC)cc(S(C)(=O)=O)c1 [JNJ-1802]
viral RNA load day 3 vs vehicle [1, 6]: significantly reduced | survival until day 6 [1, 7]: 100% | Survival [%] ([1]; DENV-3, 6 mg/kg/day BID, day 0 post-infection): 100% | Survival [%] ([1]; DENV-3, 6 mg/kg/day BID, day 1 post-infection): 100% | Survival [%] ([1]; DENV-3, 6 mg/kg/day BID, day 2 post-infection): 100% | Survival [%] ([1]; DENV-3, 6 mg/kg/day BID, day 3 post-infection): 100% | Survival [%] ([1]; DENV-3, 6 mg/kg/day BID, day 4 post-infection): 100% | Survival [%] ([1]; DENV-3, 6 mg/kg/day BID, day 5 post-infection): 100% | Survival [%] ([1]; DENV-3, 6 mg/kg/day BID, day 6 post-infection): 100% | Survival [%] ([1]; DENV-3, 60 mg/kg/day BID, day 0 post-infection): 100% | Survival [%] ([1]; DENV-3, 60 mg/kg/day BID, day 1 post-infection): 100% | Survival [%] ([1]; DENV-3, 60 mg/kg/day BID, day 2 post-infection): 100% | Survival [%] ([1]; DENV-3, 60 mg/kg/day BID, day 3 post-infection): 100% | Survival [%] ([1]; DENV-3, 60 mg/kg/day BID, day 4 post-infection): 100% | Survival [%] ([1]; DENV-3, 60 mg/kg/day BID, day 5 post-infection): 100% | Survival [%] ([1]; DENV-3, 60 mg/kg/day BID, day 6 post-infection): 100% | Viral RNA copies/mL [Log10] ([1]; 6 mg/kg/day): 1.7 copies/mL [Log10] and 2.037 copies/mL [Log10] and 2.373 copies/mL [Log10] | Viral RNA copies/mL [Log10] ([1]; 60 mg/kg/day): 1.7 copies/mL [Log10] | viral RNA load day 3 vs vehicle [2, 6]: significantly reduced | survival until day 6 [2, 7]: 100% | Survival [%] ([2]; DENV-4, 6 mg/kg/day BID, day 0 post-infection): 100% | Survival [%] ([2]; DENV-4, 6 mg/kg/day BID, day 1 post-infection): 100% | Survival [%] ([2]; DENV-4, 6 mg/kg/day BID, day 2 post-infection): 100% | Survival [%] ([2]; DENV-4, 6 mg/kg/day BID, day 3 post-infection): 100% | Survival [%] ([2]; DENV-4, 6 mg/kg/day BID, day 4 post-infection): 100% | Survival [%] ([2]; DENV-4, 6 mg/kg/day BID, day 5 post-infection): 100% | Survival [%] ([2]; DENV-4, 6 mg/kg/day BID, day 6 post-infection): 100% | Survival [%] ([2]; DENV-4, 60 mg/kg/day BID, day 0 post-infection): 100% | Survival [%] ([2]; DENV-4, 60 mg/kg/day BID, day 1 post-infection): 100% | Survival [%] ([2]; DENV-4, 60 mg/kg/day BID, day 2 post-infection): 100% | Survival [%] ([2]; DENV-4, 60 mg/kg/day BID, day 3 post-infection): 100% | Survival [%] ([2]; DENV-4, 60 mg/kg/day BID, day 4 post-infection): 100% | Survival [%] ([2]; DENV-4, 60 mg/kg/day BID, day 5 post-infection): 100% | Survival [%] ([2]; DENV-4, 60 mg/kg/day BID, day 6 post-infection): 100% | Viral RNA copies/mL [Log10] ([2]; 6 mg/kg/day): 1.7 copies/mL [Log10] and 4.048 copies/mL [Log10] and 3.88 copies/mL [Log10] | Viral RNA copies/mL [Log10] ([2]; 60 mg/kg/day): 1.7 copies/mL [Log10] | viral RNA load day 3 vs vehicle [3, 6]: significantly reduced | survival until day 6 ([3]; 60 or 6 mg per kg per day b.i.d., vehicle 20%): 100% | Survival [%] ([3]; DENV-1, 6 mg/kg/day BID, day 0 post-infection): 100% | Survival [%] ([3]; DENV-1, 6 mg/kg/day BID, day 1 post-infection): 100% | Survival [%] ([3]; DENV-1, 6 mg/kg/day BID, day 2 post-infection): 100% | Survival [%] ([3]; DENV-1, 6 mg/kg/day BID, day 3 post-infection): 100% | Survival [%] ([3]; DENV-1, 6 mg/kg/day BID, day 4 post-infection): 100% | Survival [%] ([3]; DENV-1, 6 mg/kg/day BID, day 5 post-infection): 100% | Survival [%] ([3]; DENV-1, 6 mg/kg/day BID, day 6 post-infection): 100% | Survival [%] ([3]; DENV-1, 60 mg/kg/day BID, day 0 post-infection): 100% | Survival [%] ([3]; DENV-1, 60 mg/kg/day BID, day 1 post-infection): 100% | Survival [%] ([3]; DENV-1, 60 mg/kg/day BID, day 2 post-infection): 100% | Survival [%] ([3]; DENV-1, 60 mg/kg/day BID, day 3 post-infection): 100% | Survival [%] ([3]; DENV-1, 60 mg/kg/day BID, day 4 post-infection): 100% | Survival [%] ([3]; DENV-1, 60 mg/kg/day BID, day 5 post-infection): 100% | Survival [%] ([3]; DENV-1, 60 mg/kg/day BID, day 6 post-infection): 100% | Viral RNA copies/mL [Log10] ([3]; 6 mg/kg/day): 6.011 copies/mL [Log10] and 6.0187 copies/mL [Log10] and 7.037 copies/mL [Log10] and 6.709 copies/mL [Log10] and 6.244 copies/mL [Log10] | Viral RNA copies/mL [Log10] ([3]; 60 mg/kg/day): 4.624 copies/mL [Log10] and 4.061 copies/mL [Log10] and 4.479 copies/mL [Log10] and 4.465 copies/mL [Log10] and 4.103 copies/mL [Log10] | CC50 [4]: 8.14 µM | CC90 [4]: 21.2 µM | CC90 [5]: 5.38 µM | CC50 ([5]; CC50): 2.6 µM | CC50 ([5]; CC50, Mean): 2.63 µM

— PMC10033419, “Blocking NS3–NS4B interaction inhibits dengue virus in non-human primates” (Nature, 2023)
